“And” between values parts separate entries of the source, which are not always exact repeats. Identical values can stand only once. After the bases stand the sugars from the 5' end (letter, count) and the backbone: PS all phosphorothioate, else s phosphorothioate and o phosphodiester by linkage. Methylation of C is not given here. e = 2'-O-(2-methoxyethyl) (MOE); k = constrained ethyl (cEt); d = 2'-deoxy (DNA); m = 2'-O-methyl
Target: HSD17B13
Conditions: ASO, HepaRG

Sequence	target mRNA inhibition (1 µM)	further results
GCAGAGACATGAGGTT (sugars k3 d10 k3, PS)	55%	–
GATACACCAATGCAGT (sugars k3 d10 k3, PS)	73%	–
ACATATGGTGTACACT (sugars k3 d10 k3, PS)	19%	–
AATAATAGCTCTATTG (sugars kkdddddddddkekek, PS)	2%	–
AGCTTTTGTCCACCTT (sugars k3 d10 k3, PS)	57%	–
TGTTACATCACCCACT (sugars k3 d10 k3, PS)	35%	–
CATCCCCTAAGTTATT (sugars k3 d10 k3, PS)	24%	–
CACTAATCTCAGTACT (sugars k3 d10 k3, PS)	48%	–
GTCTACCTCTAAGTTA (sugars k3 d9 k3 e1, PS)	41%	–
CCAATATGGGATGAGG (sugars k3 d10 k3, PS)	60%	–
CAGCAAAGTTTGGGCA (sugars k3 d10 k3, PS)	37%	–
ATAAGTAGATGGTAAG (sugars k3 d10 k3, PS)	58%	–
GATGTTGACCTCAAAT (sugars k3 d10 k3, PS)	0%	–
TCCGGTAAGAATTTCG (sugars k3 d10 k3, PS)	63%	–
CAGCATATTCATTTGG (sugars k3 d10 k3, PS)	49%	–
CTAGTGCCAAACCAAT (sugars kkdddddddddkekek, PS)	47%	–
TAGCUTTTGTCCACCT (sugars k3 d1 m1 d8 k3, PS)	67% and 50%	target mRNA inhibition (0.02 µM): 8%; target mRNA inhibition (0.078 µM): 9%; target mRNA inhibition (0.313 µM): 26%; target mRNA inhibition (1.25 µM): 54%; target mRNA inhibition (5 µM): 78%
ACTTCAGAGTTATACA (sugars k3 d10 k3, PS)	35%	–
GTAAGTATTCCATCTA (sugars k3 d10 k3, PS)	45%	–
TAGTCTTGATGTAGTG (sugars k3 d1 m1 d8 k3, PS)	56%	–
AAGTTAATAGGACTAA (sugars k3 d10 k3, PS)	17%	–
GGCTGGATATACTGTC (sugars k3 d10 k3, PS)	18%	–
GAAGAAGTGCTTTTGT (sugars k3 d10 k3, PS)	50%	–
TACTTGAACAGTCTTA (sugars k3 d10 k3, PS)	48%	–
GGTGGTAACGGTGATC (sugars k3 d9 k3 e1, PS)	47%	–

Sequence	target mRNA inhibition (1 µM)	further results
GGAAGATTAATCATAA (sugars k3 d10 k3, PS)	32%	–
ACTTTTCCGTCTCACA (sugars k3 d10 k3, PS)	89%	target mRNA inhibition (0.02 µM): 0%; target mRNA inhibition (0.078 µM): 19%; target mRNA inhibition (0.313 µM): 61%; target mRNA inhibition (1.25 µM): 88%; target mRNA inhibition (5 µM): 84%
CAAGGGAACACTGTCA (sugars k3 d10 k3, PS)	58%	–
GTTTCCTCCACACCGC (sugars k3 d10 k3, PS)	45%	–
ATGAAGTTAGTATAGT (sugars kkdddddddddkekek, PS)	34%	–
GAAATTTGTGAACCTG (sugars k3 d10 k3, PS)	32%	–
CTTGAACAGTCTTAAA (sugars k3 d10 k3, PS)	39%	–
ATGTTTATGTAAGCAC (sugars k3 d9 k3 e1, PS)	73%	target mRNA inhibition (0.02 µM): 6%; target mRNA inhibition (0.078 µM): 0%; target mRNA inhibition (0.313 µM): 39%; target mRNA inhibition (1.25 µM): 66%; target mRNA inhibition (5 µM): 70%
TGGCCGCACACTGAAG (sugars k3 d10 k3, PS)	0%	–
TATTCTGTGGCATGGC (sugars k3 d10 k3, PS)	71%	–
GAAACTCACTTCCTAC (sugars k3 d10 k3, PS)	56%	–
TGCTGAGAAGATCGGC (sugars k3 d10 k3, PS)	7%	–
GTAACGGTGATCAAAT (sugars kkdddddddddkekek, PS)	34%	–
AGTAATAAAGTCCAGA (sugars k3 d10 k3, PS)	43%	–
TCCAGTAGGTGTGTTT (sugars k3 d10 k3, PS)	47%	–
TGTTAACCTGCAGCAG (sugars k3 d10 k3, PS)	39%	–
AGAGGATAGTCCATGC (sugars k3 d10 k3, PS)	74%	target mRNA inhibition (0.02 µM): 12%; target mRNA inhibition (0.078 µM): 19%; target mRNA inhibition (0.313 µM): 51%; target mRNA inhibition (1.25 µM): 73%; target mRNA inhibition (5 µM): 97%
AACTTGATCTCTTAGC (sugars k3 d10 k3, PS)	64%	–
GAAAGATGGAATGAGC (sugars k3 d10 k3, PS)	54%	–
CTAACCAATTATATGA (sugars k3 d10 k3, PS)	21%	–
CTTAAGATACCCAGGT (sugars k3 d1 m1 d8 k3, PS)	50%	–
ACTACATTAACACCAA (sugars k3 d10 k3, PS)	46%	–
GAAGATTAGTTAACCT (sugars k3 d10 k3, PS)	13%	–
TAGAGTCGGTCACCTT (sugars k3 d10 k3, PS)	65%	–
GTTATTCTCTTGACAA (sugars kkdddddddddkekek, PS)	27%	–

Sequence	target mRNA inhibition (1 µM)	further results
ATCCTTGGTGCTGAGA (sugars k3 d10 k3, PS)	13%	–
ATTCACCACGATTGTT (sugars k3 d10 k3, PS)	0%	–
CTTATACTGAAGGCTG (sugars k3 d10 k3, PS)	48%	–
GAGACATGAGGTTTTG (sugars k3 d1 m1 d8 k3, PS)	61%	–
CATATTCCCTGATGAT (sugars k3 d10 k3, PS)	14%	–
CTGTAATTGGCTCTTG (sugars k3 d10 k3, PS)	28%	–
TTCATAGTGGACTTCA (sugars k3 d10 k3, PS)	51%	–
CCTAAACAAACACTAT (sugars k3 d10 k3, PS)	8%	–
GCAAGGATACCTGAAA (sugars k3 d10 k3, PS)	67%	–
CGTTTTGGGCTAATGA (sugars k3 d10 k3, PS)	48%	–
CTAATAACTACATGAC (sugars k3 d10 k3, PS)	18%	–
TCTACCACATACGCAT (sugars k3 d10 k3, PS)	55%	–
TGTGATTGAGTTCTCC (sugars kkdddddddddkekek, PS)	11%	–
ACTAATTTAGTCAACT (sugars k3 d10 k3, PS)	18%	–
ACATAACTACTTCAGT (sugars k3 d10 k3, PS)	28%	–
CTCCGTGTAGTTTGGT (sugars k3 d10 k3, PS)	28%	–
GTGCCAAACCAATGTT (sugars kkdddddddddkekek, PS)	38%	–
CAGATTATTATGTGAT (sugars kkdddddddddkekek, PS)	31%	–
ACCTTACCTTGTGCTT (sugars k3 d10 k3, PS)	0%	–
AGTACAGTTCCTTTTC (sugars kkdddddddddkekek, PS)	40%	–
CATTAAGCTTAGTATA (sugars k3 d10 k3, PS)	19%	–
GTTTTTAAGAGGCATG (sugars kkdddddddddkekek, PS)	79%	target mRNA inhibition (0.02 µM): 15%; target mRNA inhibition (0.078 µM): 13%; target mRNA inhibition (0.313 µM): 12%; target mRNA inhibition (1.25 µM): 61%; target mRNA inhibition (5 µM): 71%
GACAGTAGATTTGGTA (sugars k3 d10 k3, PS)	34%	–
TCTTGGGTCCATTGTT (sugars k3 d10 k3, PS)	60%	–
GCCAGGGAATGCTCAT (sugars k3 d10 k3, PS)	38%	–

Sequence	target mRNA inhibition (1 µM)	further results
CTGCATTAATGCCACC (sugars k3 d1 m1 d8 k3, PS)	52%	–
GGTTTTGATACCAGTT (sugars k3 d10 k3, PS)	58%	–
GATATTCTGTGGCATG (sugars k3 d9 k3 e1, PS)	71%	target mRNA inhibition (0.02 µM): 8%; target mRNA inhibition (0.078 µM): 0%; target mRNA inhibition (0.313 µM): 43%; target mRNA inhibition (1.25 µM): 65%; target mRNA inhibition (5 µM): 80%
TGCGAGAAATCTAAGA (sugars k3 d10 k3, PS)	50%	–
TCTCTTAGCTGTGCAC (sugars k3 d10 k3, PS)	79%	target mRNA inhibition (0.02 µM): 15%; target mRNA inhibition (0.078 µM): 30%; target mRNA inhibition (0.313 µM): 52%; target mRNA inhibition (1.25 µM): 74%; target mRNA inhibition (5 µM): 89%
CTCAAATGAGGCGGCA (sugars k3 d10 k3, PS)	56%	–
CTGTGCACTCATTCTG (sugars k3 d10 k3, PS)	51%	–
ATATUCTGTGGCATGG (sugars k3 d1 m1 d8 k3, PS)	63%	–
CCGAAAAAAGTGGAGG (sugars k3 d10 k3, PS)	31%	–
CAAACTGCTACTGTGT (sugars k3 d10 k3, PS)	57%	–
TCTTATTGGTAAGTAT (sugars k3 d10 k3, PS)	25%	–
ATGTATCTTATAAGAC (sugars k3 d1 m1 d8 k3, PS)	3%	–
AATAGAGTCGGTCACC (sugars kkdddddddddkekek, PS)	13%	–
TAAGATACCCAGGTTG (sugars kkdddddddddkekek, PS)	30%	–
CCATAAAGCTGGATTG (sugars k3 d10 k3, PS)	40%	–
TGAATAGCAAGCCAAC (sugars k3 d10 k3, PS)	4%	–
TCAATTTATCATACCA (sugars k3 d10 k3, PS)	26%	–
TGTCTCCAATACAGGC (sugars k3 d10 k3, PS)	39%	–
TATCATACCACATACC (sugars k3 d10 k3, PS)	24%	–
CAACGACTCCAAGTAG (sugars k3 d10 k3, PS)	0%	–
TGCCAGATTGCACAAA (sugars k3 d10 k3, PS)	54%	–
GAATTGCTCACCCTTT (sugars k3 d10 k3, PS)	24%	–
TAATGAATCATGATTG (sugars k3 d10 k3, PS)	2%	–

Reference: the OligoGym collection
